ChEMBL document CHEMBL4043281, “Development of a peptide-based inducer of protein degradation targeting NOTCH1” (Bioorg Med Chem Lett, 2017)
Calls of active or inactive are those of the source. No cut-off for these calls is given here. Positions of bridges follow the written chain, without caps; N, C: chain ends. Non-standard residues stand in square brackets, D forms with d. Residues, ends and D or L forms follow the SMILES beside them. Dip = N[C@H](C(=O)O)C(c1ccccc1)c1ccccc1; Chg = N[C@H](C(=O)O)C1CCCCC1; S5 = C=CCCC[C@](C)(N)C(=O)O; NMeA = CN[C@@H](C)C(=O)O; AEEA = NCCOCCOCC(=O)O; βAla = NCCC(=O)O

How the values were obtained:
Homo sapiens [1] = species: Homo sapiens; test: Induction of IAP-mediated NOTCH1 protein degradation in human MOLT4 cells assessed as ratio of NOTCH1 to lamin protein level at 80 uM after 6 hrs in presence of proteasome inhibitor MG132 by Western blot analysis (reference value: 100%); format: cell-based
Homo sapiens [2] = species: Homo sapiens; test: Induction of IAP-mediated NOTCH1 protein degradation in human MOLT4 cells assessed as ratio of NOTCH1 to lamin protein level at 70 uM after 6 hrs in presence of proteasome inhibitor MG132 by Western blot analysis (reference value: 100%); format: cell-based
Homo sapiens [3] = species: Homo sapiens; test: Induction of IAP-mediated NOTCH1 protein degradation in human MOLT4 cells assessed as reduction in c-Myc level at 80 uM by Western blot analysis; format: cell-based; details: TDE = time-dependent effect
Homo sapiens [4] = species: Homo sapiens; test: Induction of IAP-mediated NOTCH1 protein degradation in human MOLT4 cells assessed as reduction in c-Myc level by measuring ratio of c-Myc to beta-actin protein level at 80 uM after 4 hrs by Western blot analysis (reference value: 100%); format: cell-based
Homo sapiens [5] = species: Homo sapiens; test: Induction of IAP-mediated NOTCH1 protein degradation in human MOLT4 cells assessed as reduction in c-Myc level by measuring ratio of c-Myc to beta-actin protein level at 80 uM after 8 hrs by Western blot analysis (reference value: 100%); format: cell-based
Homo sapiens [6] = species: Homo sapiens; test: Induction of IAP-mediated NOTCH1 protein degradation in human MOLT4 cells assessed as ratio of NOTCH1 to lamin protein level at 20 uM after 6 hrs by Western blot analysis (reference value: 91%); format: cell-based
Homo sapiens [7] = species: Homo sapiens; test: Induction of IAP-mediated NOTCH1 protein degradation in human MOLT4 cells assessed as ratio of NOTCH1 to beta-actin protein level at 80 uM after 10 hrs by Western blot analysis (reference value: 100%); format: cell-based
Homo sapiens [8] = species: Homo sapiens; test: Induction of IAP-mediated NOTCH1 protein degradation in human MOLT4 cells assessed as ratio of NOTCH1 to lamin protein level at 80 uM after 6 hrs by Western blot analysis (reference value: 100%); format: cell-based
Homo sapiens [9] = species: Homo sapiens; test: Induction of IAP-mediated NOTCH1 protein degradation in human MOLT4 cells assessed as ratio of NOTCH1 to lamin protein level at 70 uM after 6 hrs by Western blot analysis (reference value: 100%); format: cell-based
MOLT-4 [10] = test: Induction of CSL protein degradation in human MOLT4 cells assessed as ratio of CSL to lamin protein level at 50 uM after 6 hrs by Western blot analysis (reference value: 100%); format: functional
Homo sapiens [11] = species: Homo sapiens; test: Induction of IAP-mediated NOTCH1 protein degradation in human MOLT4 cells assessed as ratio of NOTCH1 to beta-actin protein level at 80 uM after 2 hrs by Western blot analysis (reference value: 100%); format: cell-based
MOLT-4 [12] = test: Induction of CSL protein degradation in human MOLT4 cells assessed as ratio of CSL to lamin protein level at 20 uM after 6 hrs by Western blot analysis (reference value: 111%); format: functional
Homo sapiens [13] = species: Homo sapiens; test: Induction of IAP-mediated NOTCH1 protein degradation in human MOLT4 cells assessed as reduction in c-Myc level by measuring ratio of c-Myc to beta-actin protein level at 80 uM after 6 hrs by Western blot analysis (reference value: 100%); format: cell-based
MOLT-4 [14] = test: Induction of CSL protein degradation in human MOLT4 cells assessed as ratio of CSL to lamin protein level at 100 uM after 6 hrs by Western blot analysis (reference value: 111%); format: functional
Homo sapiens [15] = species: Homo sapiens; test: Induction of IAP-mediated NOTCH1 protein degradation in human MOLT4 cells assessed as ratio of NOTCH1 to lamin protein level at 50 uM after 6 hrs by Western blot analysis (reference value: 100%); format: cell-based
MOLT-4 [16] = test: Induction of CSL protein degradation in human MOLT4 cells assessed as ratio of CSL to lamin protein level at 80 uM after 6 hrs by Western blot analysis (reference value: 100%); format: functional
MOLT-4 [17] = test: Induction of CSL protein degradation in human MOLT4 cells assessed as ratio of CSL to lamin protein level at 60 uM after 6 hrs by Western blot analysis (reference value: 100%); format: functional
Homo sapiens [18] = species: Homo sapiens; test: Antagonist activity IAP in human MOLT4 cells assessed as reduction in cIAP1 protein level at 50 to 80 uM after 6 hrs by Western blot analysis; format: cell-based
Homo sapiens [19] = species: Homo sapiens; test: Induction of IAP-mediated NOTCH1 protein degradation in human MOLT4 cells assessed as ratio of NOTCH1 to lamin protein level at 100 uM after 6 hrs by Western blot analysis (reference value: 91%); format: cell-based
Homo sapiens [20] = species: Homo sapiens; test: Induction of IAP-mediated NOTCH1 protein degradation in human MOLT4 cells assessed as ratio of NOTCH1 to beta-actin protein level at 80 uM after 6 hrs by Western blot analysis (reference value: 100%); format: cell-based
MOLT-4 [21] = test: Induction of CSL protein degradation in human MOLT4 cells assessed as ratio of CSL to lamin protein level at 50 uM after 6 hrs by Western blot analysis (reference value: 111%); format: functional
MOLT-4 [22] = test: Cytotoxicity against human MOLT4 cells at >100 uM; format: cell-based
MOLT-4 [23] = test: Induction of CSL protein degradation in human MOLT4 cells assessed as ratio of CSL to lamin protein level at 70 uM after 6 hrs by Western blot analysis (reference value: 100%); format: functional
Homo sapiens [24] = species: Homo sapiens; test: Induction of IAP-mediated NOTCH1 protein degradation in human MOLT4 cells assessed as ratio of NOTCH1 to lamin protein level at 50 uM after 6 hrs by Western blot analysis (reference value: 91%); format: cell-based
Homo sapiens [25] = species: Homo sapiens; test: Induction of IAP-mediated NOTCH1 protein degradation in human MOLT4 cells assessed as reduction in c-Myc level by measuring ratio of c-Myc to beta-actin protein level at 80 uM after 2 hrs by Western blot analysis (reference value: 100%); format: cell-based
Homo sapiens [26] = species: Homo sapiens; test: Induction of IAP-mediated NOTCH1 protein degradation in human MOLT4 cells assessed as ratio of NOTCH1 to lamin protein level at 60 uM after 6 hrs in presence of proteasome inhibitor MG132 by Western blot analysis (reference value: 100%); format: cell-based
Homo sapiens [27] = species: Homo sapiens; test: Induction of IAP-mediated NOTCH1 protein degradation in human MOLT4 cells assessed as reduction in c-Myc level by measuring ratio of c-Myc to beta-actin protein level at 80 uM after 10 hrs by Western blot analysis (reference value: 100%); format: cell-based
Homo sapiens [28] = species: Homo sapiens; test: Induction of IAP-mediated NOTCH1 protein degradation in human MOLT4 cells assessed as ratio of NOTCH1 to beta-actin protein level at 80 uM after 4 hrs by Western blot analysis (reference value: 100%); format: cell-based
Homo sapiens [29] = species: Homo sapiens; test: Induction of IAP-mediated NOTCH1 protein degradation in human MOLT4 cells assessed as ratio of NOTCH1 to lamin protein level at 60 uM after 6 hrs by Western blot analysis (reference value: 100%); format: cell-based
Homo sapiens [30] = species: Homo sapiens; test: Induction of IAP-mediated NOTCH1 protein degradation in human MOLT4 cells assessed as ratio of NOTCH1 to beta-actin protein level at 80 uM after 8 hrs by Western blot analysis (reference value: 100%); format: cell-based
Homo sapiens [31] = species: Homo sapiens; test: Induction of IAP-mediated NOTCH1 protein degradation in human MOLT4 cells assessed as ratio of NOTCH1 to lamin protein level at 20 uM after 6 hrs by Western blot analysis (reference value: 100%); format: cell-based
MOLT-4 [32] = test: Induction of CSL protein degradation in human MOLT4 cells assessed as ratio of CSL to lamin protein level at 20 uM after 6 hrs by Western blot analysis (reference value: 100%); format: functional
Homo sapiens [33] = species: Homo sapiens; test: Induction of IAP-mediated NOTCH1 protein degradation in human MOLT4 cells assessed as ratio of NOTCH1 to lamin protein level at 100 uM after 6 hrs by Western blot analysis (reference value: 100%); format: cell-based
MOLT-4 [34] = test: Induction of CSL protein degradation in human MOLT4 cells assessed as ratio of CSL to lamin protein level at 100 uM after 6 hrs by Western blot analysis (reference value: 100%); format: functional

## CC[C@H](C)[C@H](NC(=O)[C@H](CCCNC(=N)N)NC(=O)[C@H](CCCNC(=N)N)NC(=O)[C@H](CCCNC(=N)N)NC(=O)[C@H](CC(C)C)NC(=O)[C@H](CCCNC(=N)N)NC(=O)[C@H](CCC(=O)O)NC(=O)CCNC(=O)COCCOCCNC(=O)COCCOCCNC(=O)[C@@H](NC(=O)[C@@H]1CCCN1C(=O)[C@@H](NC(=O)[C@H](C)NC)C1CCCCC1)C(c1ccccc1)c1ccccc1)C(=O)N[C@@]1(C)CCC/C=C\CCC[C@@](C)(C(=O)N[C@@H](CCCNC(=N)N)C(=O)N[C@@H](Cc2cnc[nH]2)C(=O)N[C@@H](Cc2cnc[nH]2)C(=O)N[C@@H](CO)C(=O)N[C@H](C(=O)O)[C@@H](C)O)NC(=O)[C@H](CS)NC(=O)[C@H](CC(C)C)NC1=O (H-[NMeA][Chg]P[Dip][AEEA][AEEA][βAla]ERLRRRI[S5]LC[S5]RHHST-OH; staple (Z) 15-18)
Homo sapiens [1]
  Ratio: 110%
Homo sapiens [2]
  Ratio: 108%
Homo sapiens [3]
  Activity: Tde
Homo sapiens [4]
  Ratio: 73%
Homo sapiens [5]
  Ratio: 56%
Homo sapiens [6]
  Ratio: 99%
Homo sapiens [7]
  Ratio: 43%
Homo sapiens [8]
  Ratio: 48 to 67%
Homo sapiens [9]
  Ratio: 63 to 70%
MOLT-4 [10]
  Ratio: 110%
Homo sapiens [11]
  Ratio: 67%
MOLT-4 [12]
  Ratio: 114%
Homo sapiens [13]
  Ratio: 63%
MOLT-4 [14]
  Ratio: 83%
Homo sapiens [15]
  Ratio: 88%
MOLT-4 [16]
  Ratio: 118%
MOLT-4 [17]
  Ratio: 108%
Homo sapiens [18]
  inhibition: Active
Homo sapiens [19]
  Ratio: 30%
Homo sapiens [20]
  Ratio: 54%
MOLT-4 [21]
  Ratio: 99%
MOLT-4 [22]
  Activity: Toxic
MOLT-4 [23]
  Ratio: 112%
Homo sapiens [24]
  Ratio: 76%
Homo sapiens [25]
  Ratio: 62%
Homo sapiens [26]
  Ratio: 92%
Homo sapiens [27]
  Ratio: 43%
Homo sapiens [28]
  Ratio: 52%
Homo sapiens [29]
  Ratio: 72 to 75%
Homo sapiens [30]
  Ratio: 56%

## CC[C@H](C)[C@H](NC(=O)[C@H](CCCNC(=N)N)NC(=O)[C@H](CCCNC(=N)N)NC(=O)[C@H](CCCNC(=N)N)NC(=O)[C@H](CC(C)C)NC(=O)[C@H](CCCNC(=N)N)NC(=O)[C@H](CCC(=O)O)NC(=O)CCNC(=O)COCCOCCNC(=O)[C@@H](NC(=O)[C@@H]1CCCN1C(=O)[C@@H](NC(=O)[C@H](C)NC)C1CCCCC1)C(c1ccccc1)c1ccccc1)C(=O)N[C@@H](CCC(=O)O)C(=O)N[C@@H](CC(C)C)C(=O)N[C@@H](CS)C(=O)N[C@@H](CCCNC(=N)N)C(=O)N[C@@H](CCCNC(=N)N)C(=O)N[C@@H](Cc1cnc[nH]1)C(=O)N[C@@H](Cc1cnc[nH]1)C(=O)N[C@@H](CO)C(=O)N[C@H](C(=O)O)[C@@H](C)O (H-[NMeA][Chg]P[Dip][AEEA][βAla]ERLRRRIELCRRHHST-OH)
MOLT-4 [10]
  Ratio: 108%
Homo sapiens [15]
  Ratio: 100%
Homo sapiens [31]
  Ratio: 116%
MOLT-4 [32]
  Ratio: 115%
MOLT-4 [22]
  Activity: Toxic
Homo sapiens [33]
  Ratio: 85%
MOLT-4 [34]
  Ratio: 99%
